Measured values reported in patent US20140135270A1, “MACROCYCLIC COMPOUNDS FOR INHIBITION OF INHIBITORS OF APOPTOSIS” (Ensemble Therapeutics Corp., priority 2012, published 2014).
pIC50: −log10 of the molar value.

Key:
[1] = target: T1, His-BIR3 (241-356, XIAP) (Homo sapiens, UniProt P98170); assay: XIAP-BIR3/SMAC Homogeneous Time Resolved Fluorescence (HTRF) Assay; assay type: binding; conditions: fluorescein labeled SMAC peptide
T1 construct: additions of His-BIR3 (241-356, XIAP), fluorescein labeled SMAC peptide
T1 sequence (P98170 241-356): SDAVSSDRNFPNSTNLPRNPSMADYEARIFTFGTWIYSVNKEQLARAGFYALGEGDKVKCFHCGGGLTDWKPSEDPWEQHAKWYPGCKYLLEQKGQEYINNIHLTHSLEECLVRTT

[2] = target: T2, His-BIR2-3 (125-356, C202A/C213G, XIAP) (Homo sapiens, UniProt P98170, C202A/C213G); assay: XIAP-BIR2-3 Dimeric SMAC Peptide Homogeneous Time Resolved Fluorescence (HTRF) Assay; assay type: binding; conditions: fluorescein labeled dimeric SMAC peptide
T2 construct: additions of His-BIR2-3 (125-356, C202A/C213G, XIAP), fluorescein labeled dimeric SMAC peptide
T2 sequence (P98170 125-356 C202A/C213G): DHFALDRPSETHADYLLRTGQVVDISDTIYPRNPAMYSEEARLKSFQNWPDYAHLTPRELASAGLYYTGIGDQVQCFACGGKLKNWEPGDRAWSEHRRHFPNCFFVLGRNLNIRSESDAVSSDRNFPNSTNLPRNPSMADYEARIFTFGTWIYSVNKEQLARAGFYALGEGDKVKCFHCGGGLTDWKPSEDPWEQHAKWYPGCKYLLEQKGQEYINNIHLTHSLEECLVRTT

`CN[C@@H](C)C(=O)N[C@H](C(=O)N1C[C@@H]2C[C@H]1C(=O)N[C@@H](Cc1ccc3ccccc3c1)C(=O)N[C@H](C(=O)NS(=O)(=O)C1CC1)Cc1ccc(cc1)OCc1cn(nn1)[C@H]1C[C@@H](C(=O)N[C@@H](Cc3ccc4ccccc4c3)C(=O)N[C@H](C(=O)O)Cc3ccc(cc3)OC/C=C/CO2)N(C(=O)[C@@H](NC(=O)[C@H](C)NC)C(C)(C)C)C1)C1CCNCC1` [Example 110] was tested, and the pIC50 [1] was 8.00 and the pIC50 [2] was 8.82.

`CN[C@@H](C)C(=O)N[C@H](C(=O)N[C@H]1C/C=C/CC[C@@H](C(=O)O)NC(=O)[C@H](Cc2ccc3ccccc3c2)NC(=O)[C@@H]2CN(CCNC(=O)CC[C@@H](C(=O)O)NC(=O)[C@H](Cc3ccc4ccccc4c3)NC1=O)CCN2C(=O)[C@@H](NC(=O)[C@H](C)NC)C(C)(C)C)C(C)(C)C` [Example 80] gave a pIC50 [1] of 6.43 and a pIC50 [2] of 8.17.

`CN[C@@H](C)C(=O)N[C@H](C(=O)N1C[C@@H]2C[C@H]1C(=O)N[C@@H](Cc1ccc3ccccc3c1)C(=O)N[C@H](C(=O)O)Cc1ccc(cc1)OCCCCO[C@H]1C[C@@H](C(=O)N[C@@H](Cc3ccc4ccccc4c3)C(=O)N[C@H](C(=O)NS(=O)(=O)C3CC3)Cc3ccc(cc3)OCc3cn2nn3)N(C(=O)[C@@H](NC(=O)[C@H](C)NC)C(C)(C)C)C1)C(C)(C)C` [Example 120] showed a pIC50 [1] of 7.38 and a pIC50 [2] of 8.10.

In the case of `CN[C@@H](C)C(=O)N[C@H](C(=O)N1C[C@@H]2C[C@H]1C(=O)N[C@@H](Cc1ccc3ccccc3c1)C(=O)N[C@H](C(=O)O)Cc1ccc(cc1)OCCCC[C@H]1C[C@@H](C(=O)N[C@@H](Cc3ccc4ccccc4c3)C(=O)N[C@H](C(=O)NS(C)(=O)=O)Cc3ccc(cc3)OCc3cn2nn3)N(C(=O)[C@@H](NC(=O)[C@H](C)NC)C(C)(C)C)C1)C(C)(C)C` [Example 2], the pIC50 [1] was 8.64 and the pIC50 [2] was 9.10.

`CN[C@@H](C)C(=O)N[C@H](C(=O)N[C@H]1C/C=C/COc2ccc(cc2)C[C@H](C(=O)O)NC(=O)[C@H](Cc2ccc3ccccc3c2)NC(=O)[C@@H]2[C@@H](CCN2C(=O)[C@@H](NC(=O)[C@H](C)NC)C(C)(C)C)OCc2cn(nn2)CC[C@@H](C(=O)OC)NC(=O)[C@H](Cc2ccc3ccccc3c2)NC1=O)C(C)(C)C` [Example 21] showed a pIC50 [1] of 8.74 and a pIC50 [2] of 8.59.

Work on `CN[C@@H](C)C(=O)N[C@H](C(=O)N1C[C@@H]2C[C@H]1C(=O)N[C@@H](Cc1ccc3ccccc3c1)C(=O)N[C@H](C(=O)O)Cc1ccc(cc1)OCc1cn(nn1)[C@H]1C[C@@H](C(=O)N[C@@H](Cc3ccc4ccccc4c3)C(=O)N[C@H](C(=O)O)Cc3ccc(cc3)OCCCCO2)N(C(=O)[C@@H](NC(=O)[C@H](C)NC)C(C)(C)C)C1)C(C)(C)C` [Example 121] yielded a pIC50 [1] of 7.94 and a pIC50 [2] of 8.10.

`CN[C@@H](C)C(=O)N[C@H](C(=O)N1C[C@@H]2C[C@H]1C(=O)N[C@@H](Cc1ccc3ccccc3c1)C(=O)N[C@H](C(=O)O)Cc1ccc(cc1)OC/C=C/CO[C@H]1C[C@@H](C(=O)N[C@@H](c3ccccc3)C(=O)N[C@H](C(=O)O)Cc3ccc(cc3)C(=O)N2)N(C(=O)[C@@H](NC(=O)[C@H](C)NC)C(C)(C)C)C1)C(C)(C)C` [Example 51] was tested, and the pIC50 [1] was 7.21 and the pIC50 [2] was 8.32.

In the case of `CN[C@@H](C)C(=O)N[C@H](C(=O)N[C@H]1C/C=C/CC[C@@H](C(=O)O)NC(=O)[C@H](Cc2ccc3ccccc3c2)NC(=O)[C@@H]2[C@@H](CCN2C(=O)[C@@H](NC(=O)[C@H](C)NC)C(C)(C)C)OCc2cn(nn2)CC[C@@H](C(=O)OC)NC(=O)[C@H](Cc2ccc3ccccc3c2)NC1=O)C(C)(C)C` [Example 20], the pIC50 [1] was 8.32 and the pIC50 [2] was 8.14.

`CCCCCCCCCCCCS(=O)(=O)NC(=O)[C@@H]1Cc2ccc(cc2)OC/C=C/C[C@H]2C[C@@H](C(=O)N[C@@H](Cc3ccc4ccccc4c3)C(=O)N[C@H](C(=O)O)Cc3ccc(cc3)OCc3cn(nn3)[C@H]3C[C@@H](C(=O)N[C@@H](Cc4ccc5ccccc5c4)C(=O)N1)N(C(=O)[C@@H](NC(=O)[C@H](C)NC)C(C)(C)C)C3)N(C(=O)[C@@H](NC(=O)[C@H](C)NC)C(C)(C)C)C2` [Example 23] showed a pIC50 [1] of 7.47 and a pIC50 [2] of 8.16.

In the case of `CN[C@@H](C)C(=O)N[C@H](C(=O)N1CC[C@H]2OCc3cn(nn3)CC[C@@H](C(=O)OC)NC(=O)[C@H](Cc3ccc4ccccc4c3)NC(=O)[C@@H]3[C@@H](CCN3C(=O)[C@@H](NC(=O)[C@H](C)NC)C(C)(C)C)OC/C=C/CC[C@@H](C(=O)O)NC(=O)[C@H](Cc3ccc4ccccc4c3)NC(=O)[C@H]21)C(C)(C)C` [Example 16], the pIC50 [1] was 8.21 and the pIC50 [2] was 8.46.

`CN[C@@H](C)C(=O)N[C@H](C(=O)N1C[C@@H]2C[C@H]1C(=O)NC(Cc1ccc3ccccc3c1)C(=O)N[C@H](C(=O)O)Cc1ccc(cc1)OCCCC[C@H]1C[C@@H](C(=O)N[C@@H](Cc3ccc4ccccc4c3)C(=O)N[C@H](c3nnn[nH]3)Cc3ccc(cc3)OCc3cn2nn3)N(C(=O)[C@@H](NC(=O)[C@H](C)NC)C(C)(C)C)C1)C(C)(C)C` (some centres unmarked) [Example 99] was tested, and the pIC50 [1] was 8.62 and the pIC50 [2] was 8.43.

`CN[C@@H](C)C(=O)N[C@H](C(=O)N1C[C@@H]2C[C@H]1C(=O)N[C@@H](Cc1ccc3ccccc3c1)C(=O)N[C@H](C(=O)O)Cc1ccc(cc1)OC/C=C/CO[C@H]1C[C@@H](C(=O)N[C@@H](Cc3ccc(-c4cccc(F)c4)cc3)C(=O)N[C@H](C(=O)NS(=O)(=O)C3CC3)Cc3ccc(cc3)OCc3cn2nn3)N(C(=O)[C@@H](NC(=O)[C@H](C)NC)C(C)(C)C)C1)C(C)(C)C` [Example 115] gave a pIC50 [1] of 7.74 and a pIC50 [2] of 7.95.

With `CN[C@@H](C)C(=O)N[C@@H](CC1CCCCC1)C(=O)N1C[C@@H]2C[C@H]1C(=O)N[C@@H](Cc1ccc3ccccc3c1)C(=O)N[C@H](C(=O)O)Cc1ccc(cc1)C(=O)N[C@H]1C[C@@H](C(=O)N[C@@H](Cc3ccc4ccccc4c3)C(=O)N[C@H](C(=O)O)Cc3ccc(cc3)OC/C=C/CO2)N(C(=O)[C@@H](NC(=O)[C@H](C)NC)C(C)(C)C)C1` [Example 69] the pIC50 [1] was 7.79 and the pIC50 [2] was 8.49.

With `CN[C@@H](C)C(=O)N[C@H](C(=O)N1C[C@H]2C/C=C/COc3ccc(cc3)C[C@@H](C(=O)NS(C)(=O)=O)NC(=O)[C@H](Cc3ccc4ccccc4c3)NC(=O)[C@@H]3C[C@@H](CN3C(=O)[C@@H](NC(=O)[C@H](C)NC)C(C)(C)C)n3cc(nn3)COc3ccc(cc3)C[C@@H](C(=O)O)NC(=O)[C@H](Cc3ccc4ccccc4c3)NC(=O)[C@@H]1C2)C(C)(C)C` [Example 26] the pIC50 [1] was 8.41 and the pIC50 [2] was 9.05.

In the case of `CN[C@@H](C)C(=O)N[C@H](C(=O)N1C[C@H]2C/C=C/COc3ccc(cc3)C[C@@H](C(=O)NS(=O)(=O)C3CCCCC3)NC(=O)[C@H](Cc3ccc4ccccc4c3)NC(=O)[C@@H]3C[C@@H](CN3C(=O)[C@@H](NC(=O)[C@H](C)NC)C(C)(C)C)n3cc(nn3)COc3ccc(cc3)C[C@@H](C(=O)O)NC(=O)[C@H](Cc3ccc4ccccc4c3)NC(=O)[C@@H]1C2)C(C)(C)C` [Example 24], the pIC50 [1] was 9.15 and the pIC50 [2] was 9.70.

Compound `CN[C@@H](C)C(=O)N[C@H](C(=O)N1C[C@@H]2C[C@H]1C(=O)N[C@@H](Cc1ccc3ccccc3c1)C(=O)N[C@H](C(=O)O)Cc1ccc(cc1)OC/C=C/CO[C@H]1C[C@@H](C(=O)N3Cc4ccccc4C[C@H]3C(=O)N[C@H](C(=O)NS(=O)(=O)C3CC3)Cc3ccc(cc3)OCc3cn2nn3)N(C(=O)[C@@H](NC(=O)[C@H](C)NC)C(C)(C)C)C1)C(C)(C)C` [Example 105] has a pIC50 [1] of 7.30 and a pIC50 [2] of 7.88.
